Measurements reported in patent US7314956B2, “Multifunctional carrier for the delivery of a pharmacological agent or genetic material into a cell” (Vaxim, Inc., priority 2001, dated 2008).
Read-outs that look alike come from different tables or passages of the source.

Key:
[1] = system: R5 and dual-tropic (R5/X4) HIV-1 strains; conditions: monocyte-derived macrophages (MDMs), microglia, primary CD4(+) T cells; cited from earlier work
[2] = in vitro; cited from earlier work
CD4 receptor = CD4 receptor (Homo sapiens, UniProt P01730); conditions: in vitro; cited from earlier work
[3] = system: rabbit anti peptide T antiserum; conditions: compared with the other fractions of the same adduct, FIG. 14
Description: HPLC fractions of succinic acid-(Glu)n conjugated to peptide T were analyzed by ELISA (i.e., enzyme linked immunosorbent assay). HPLC fractions of conjugated peptide T were diluted (1:10) in coating buffer [1.59 g sodium carbonate (Na2CO3), 2.93 g sodium bicarbonate (NaHCO3) Dissolve in 900 ml H2O, adjust pH to 9.6 with HCl and make up to 1 L]. Control net peptide T was dissolved in coating buffer with a concentration of 5 μg/ml. 100 μl of each of two peptide T preparations was added to each well of a 96-well microtiter plate (Nunc). The plate was covered with a plate sealer and incubated at 4° C. over night. Following 3 washes with PBS-Tween [phosphate buffer saline: 8.0 g sodium chloride (NaCl), 0.2 g monobasic potassium phosphate (KH2PO4), 1.15 g dibasic sodium phosphate (Na2HPO4), 0.2 g potassium chloride (KCl), Dissolve in 900 ml H2O, adjust pH to 7.4 with NaOH or HCl and make up to 1 L, PBS+0.5 ml Tween 20 per liter]. 100 μl of diluted rabbit anti peptide T antiserum (1:250, in assay diluent, 0.1% BSA and 0.1% sodium azide (NaN3) in PBS) was added to each well. The plate was sealed and incubated for 1 hour at room temperature. Following 5 washes, each well was added with 100 μl of diluted goat anti rabbit IgG alkaline phosphatase conjugate (KPL, 1:1000 dilution in assay diluent). The plate was sealed and incubated for 30 min. […] Optical density (OD) was then read at 405 nm.

Balb/c mice = conditions: i.p. 0.5 mg per immunization, day 0, 8 and 21, Freund's adjuvant, antiserum 1:100, FIG. 15
Description: Balb/c mice were immunized intraperitoneally with succinic acid-(glu)n-Peptide T at 0.5 mg per immunization and per animal. The antigen complex was administered with complete Freund's adjuvant (first injection) and with incomplete Freund's adjuvant for booster injections. Mice were immunized 3 times at day 0, day 8 and day 21. Mice were bled via tail vein and 15 μl of blood collected by a capillary tube was transferred into 135 μl PBS in a 12×75 tissue culture tube. Diluted mouse sera were collected after centrifugation for 10 min.
A polystyrene 96-well plate (Nunc) was coated with free peptide T at 10 μg/ml in coating (pH 9.6) overnight at 4° C. The plate was washed 3 times with wash buffer. Afterwards, 100 μl of diluted (1:100 in assay diluent) mouse antiserum from each mouse was then added to each well (each serum sample was assayed in duplicate) and incubated for 2 hours at room temperature. The plates were then washed 5 times with wash buffer. Goat anti-mouse IgG conjugated to alkaline phosphate (KPL) was diluted 1:1000 in PBS with 1% bovine serum albumin, added to the wells, and incubated for 30 min at room temperature followed by six washes with wash buffer. Substrate solution (p-Nitrophenyl phosphate, 2 mg/ml in substrate buffer) was then added. Absorbance was then measured using a microplate reader at 405 nm.

Which “replication of HIV-1 strains” value [1] does the source give for “D-Ala-Ser-Thr-Thr-Thr-Asn-Tyr-Thr-NH2 [Peptide T]” here?
Its value is “inhibits replication”.

What about the chemotactic activity [2] of the same substance?
Its chemotactic activity is “chemotactic activity”.

What about the “binding of isolated gp120 and HIV-1 to the CD4 receptor” value (CD4 receptor) of the same substance?
The value was “inhibition of the binding”.

With “Succinic Acid-(Glu)2-(Glu)4-(Glu)8-(Peptide T)16 [Shell 3]” as the substance, how does the “immunoreactivity (optical density at 405 nm)” value ([3]; HPLC Fraction 3 (highest retention time)) read?
The value was “highest immunoreactivity”.

And the “immune response (anti-peptide T antibodies, ELISA OD at 405 nm)” value (Balb/c mice)?
Its value is “some mice show greater immune response”.

Which “immunoreactivity (optical density at 405 nm)” value ([3]; HPLC Fraction 2 (highest retention time)) does the source give for “Succinic Acid-(Glu)2-(Glu)4-(Peptide T)8 [Shell 2]” here?
Its value is “highest immunoreactivity”.

And the “immune response (anti-peptide T antibodies, ELISA OD at 405 nm)” value (Balb/c mice)?
Its value is “some mice show greater immune response”.
